Reference: patent US12077608B2, “Stapled H2 pyrin peptides” (H. LEE MOFFITT CANCER CENTER AND RESEARCH INSTITUTE, INC., priority 2018, dated 2024)
Read-outs that look alike come from different tables or passages of the source. Bridge positions count the residues as written; N and C are the ends. Square brackets hold non-standard residues; d marks the D form. Ends that are not written are not given here. Peptide text beside a SMILES is read from it. * marks the point of attachment. FITC = O=C1OC2(c3ccc(O)cc3Oc3cc(O)ccc32)c2ccc(NC(=S)*)cc21; S5 = C=CCCC[C@](C)(N)C(=O)O; Nle = CCCC[C@H](N)C(=O)O; βAla = NCCC(=O)O

Key:
[1] = Circular dichroism (CD) secondary structure of the peptides; assay type: physicochemical; settings: aqueous solution; 100 μM peptide in 10 mM potassium phosphate, 100 mM potassium fluoride buffer (pH=7.5)
Protocol: Circular dichroism (CD) was used to determine the secondary structure of the peptides. […] Hydrocarbon stapling promoted α-helix contents with SAH-POP1-4 and SAH-POP1-8 having the highest in aqueous solution.
CD spectra were recorded on an AVIV Model 215 Circular Dichroism Spectrometer. Each spectrum was collected with the wavelength between 190 to 260 nm, 0.5 nm increments, and 0.5 s averaging time using a 1-mm path length cell. The peptide concentration was 100 μM in 10 mM potassium phosphate and 100 mM potassium fluoride buffer (pH=7.5). The studied peptides were completely dissolved in this buffer. CD spectra were initially plotted as wavelength versus millidgree, the default output of the instrument. Once the precise peptide concentration was confirmed, the mean residue ellipticity [Θ] was calculated for the y-axis.

[2] = test system: caspase-1 activity in Human THP-1 monocytes; experiment: Promega Caspase-Glo 1 Inflammasome Assay (cell-based bioluminescent caspase-1 activity assay); settings: for inhibited caspase-1 activities: 5 μM inhibitor, PMA-differentiated THP-1, LPS and nigericin stimulated
Excerpt: Promega Caspase-Glo™ 1 Inflammasome Assay. A cell-based bioluminescent caspase-1 activity assay (O'Brien et al., 2017) (Promega Caspase-Glo™ | Inflammasome Assay Kit G9951) was used to evaluate the inhibitory activity of SAH-POP1-4 and SAH-POP1-8 on inhibition of inflammasome formation and caspase-1 activation. Human THP-1 monocytes were differentiated with phorbol 12-myristate 13-acetate (PMA), and treated sequentially with lipopolysaccharide (LPS), a Toll-like receptor 4 (TLR4) agonist, and nigericin, a K^+ ionophore to promote K^+ efflux, resulting in NLRP3- and ASC-dependent caspase-1 activation. The cells were then treated with the inhibitors. […] Experimental Procedure for Promega caspase-Glo™ 1 Inflammasome Assay: THP1 cells were seeded at 5×10^5/ml in RPMI1640 medium with 10% FCS in 96-well plates and cultivated in the presence of 50 nM phorbol-12-myristate-13-acetate (PMA) for 24 h. Then the media was replaced with fresh media and incubated for 24 h. The cells were stimulated with 200 ng/ml LPS in E. coli (Sigma) for 3 h. The media was removed and replaced with serum-free media (OptiMEM) containing DMSO (1:1,000), 5 μM inhibitors for 30 min. Cells were then stimulated with the inflammasome activators: 5 μM nigericin 2 h. Control samples were incubated with medium lacking LPS or nigericin. Then the activity of the active caspase-1 was measured by Caspase-Glo™ 1 inflammasome assay (Promega). A cell-based bioluminescent caspase-1 activity assay (Promega Caspase-Glo™ 1 Inflammasome Assay Kit G9951) was used to evaluate the inhibitory activity of SAH-POP1-17 and SAH-POP1-18 on inhibition of inflammasome formation and caspase-1 activation. Human THP-1 monocytes were differentiated with phorbol 12-myristate 13-acetate (PMA), and treated sequentially with lipopolysaccharide (LPS), a Toll-like receptor 4 (TLR4) agonist, and nigericin, a K^+ ionophore to promote K^+ efflux, resulting in NLRP3- and ASC-dependent caspase-1 activation. The cells were then treated with the inhibitors. […] Experimental Procedure for Promega caspase-Glo™ 1 Inflammasome Assay: THP1 cells were seeded at 5×10^5/ml in RPMI1640 medium with 10% FCS in 96-well plates and cultivated in the presence of 50 nM phorbol-12-myristate-13-acetate (PMA) for 24 h. Then the media was replaced with fresh media and incubated for 24 h. The cells were stimulated with 200 ng/ml LPS in E. coli (Sigma) for 3 h. The media was removed and replaced with serum-free media (OptiMEM) containing DMSO (1:1,000), 5 μM inhibitors for 30 min. Cells were then stimulated with the inflammasome activators: 5 μM nigericin 2 h. Control samples were incubated with medium lacking LPS or nigericin. Then the activity of the active caspase-1 was measured by Caspase-Glo™ 1 inflammasome assay (Promega).

[3] = molecular target: T1, GST-NLRP3^PYD (Homo sapiens, UniProt Q96P20); experiment: KD (μM) | GST-NLRP3^PYD
T1 construct: human NLRP3 (residues 3-110) was cloned into a pET-21b vector; made in house; host or cells: E. coli BL21 DE3
Excerpt: Table printed on a drawing sheet, FIG. 10
Head of the field: KD (μM) | GST-NLRP3^PYD
The patent's description of the figure: FIG. 10 is a table showing the results from a fluorescence anisotropy binding assay to determine the accurate binding affinities of stapled peptides fPOP1-H2 (SEQ ID NO: 2), fSAH-POP1-1 (SEQ ID NO: 1), fSAH-POP1-3 (SEQ ID NO: 3), fSAH-POP1-4 (SEQ ID NO: 4), fSAH-POP1-5 (SEQ ID NO: 5), fSAH-POP1-6 (SEQ ID NO: 6), fSAH-POP1-7 (SEQ ID NO: 7), fSAH-POP1-8 (SEQ ID NO: 8), fSAH-POP1-9 (SEQ ID NO: 9), fSAH-POP1-10 (SEQ ID NO: 10), fSAH-POP1-11 (SEQ ID NO: 11), fSAH-POP1-12 (SEQ ID NO: 12), fSAH-POP1-13 (SEQ ID NO: 13), fSAH-POP1-14 (SEQ ID NO: 14), fSAH-POP1-15 (SEQ ID NO: 15), fSAH-POP1-16 (SEQ ID NO: 16), fSAH-POP1-17 (SEQ ID NO: 17), fSAH-POP1-18 (SEQ ID NO: 18), fSAH-POP1-19 (SEQ ID NO: 19), fSAH-POP1-20 (SEQ ID NO: 20), fSAH-POP1-21 (SEQ ID NO: 21), fSAH-POP1-22 (SEQ ID NO: 22), fSAH-POP1-23 (SEQ ID NO: 23), fSAH-POP1-24 (SEQ ID NO: 24), fSAH-POP1-25 (SEQ ID NO: 25), fSAH-POP1-26 (SEQ ID NO: 26), fSAH-POP1-27 (SEQ ID NO: 27), fSAH-POP1-28 (SEQ ID NO: 28), fSAH-POP1-29 (SEQ ID NO: 29), fSAH-POP1-30 (SEQ ID NO: 30), fSAH-POP1-31 (SEQ ID NO: 31).
First copying reader's note: In the structures S5, NL (N with lowered L) and NH2 carry lowered signs, a drawn bracket joins the two S5 residues (staple), and the SEQ ID NO column is printed outside the table frame. […]

[4] = test system: ASC speck formation in THP-1 ASC-GFP cells; experiment: ASC speck assay, live-cell imaging; assay type: cell-based, Human; settings: 20 μM peptide; nigericin-activated THP-1 ASC-GFP cells
Protocol: ASC speck is a hallmark of inflammasome formation (Dick et al., 2016; Hoss et al., 2017) and observable by microscopy (Doyle et al., 2012; Stutz et al., 2013). THP-1 ASC-GFP cells stably expressing the ASC-GFP fusion protein (InvivoGen Catalog #: thp-ascgfp) were used to visualize the inhibitory effect of SAH-POP1-4 on ASC specks formation (Fernandes-Alnemri et al., 2007).
Experimental Procedure for ASC Speck Assay. THP1 ASC-GFP cells were seeded at 2×10^6/ml (0.7-1 mL) in RPMI1640 medium with 10% FCS in FluoroDish (FD35-100) and cultivated in the presence of 50 nM phorbol-12-myristate-13-acetate (PMA) for 24 h, then media was replaced by fresh media and incubated for 24 h. Then cells were stimulated with 200 ng/ml LPS from E. coli (sigma) for 3 h. The media was removed and replaced with serum-free medium (OptiMEM) containing DMSO (1:1,000), 20 μM inhibitors for 30 min. […] Control samples were incubated with media lacking LPS or nigericin. Then, ASC specks were tested by confocal microscopy SP8 (Leica Microsystems).
ASC speck is the hallmark of inflammasome formation and observable by microscopy. THP-1 ASC-GFP cells stably expressing the ASC-GFP fusion protein (InvivoGen Catalog #: thp-ascgfp) were used to visualize the inhibitory effect of SAH-POP1-17 on ASC specks formation (Fernandes-Alnemri et al., 2007). […] SAH-POP1-17 at 5 μM inhibited ASC speck formation to 4%, and SAH-POP1-18 at 5 μM inhibited ASC speck formation to 8%.

T1 sequence (Q96P20 3-110): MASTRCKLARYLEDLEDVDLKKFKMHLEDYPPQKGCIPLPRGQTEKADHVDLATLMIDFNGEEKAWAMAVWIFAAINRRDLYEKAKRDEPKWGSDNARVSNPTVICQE

Row | cell permeability ([2]; THP-1 cells, inferred from caspase-1 assay) | Kd [3] | Compound | α-helical structure / α-helix contents by circular dichroism [1] | inhibited caspase-1 activities [2] | cell permeability [2] | inhibition of ASC speck formation [4]
1 | cell permeable | – | CCCC[C@H](NC(=O)[C@H](CCCCN)NC(=O)[C@]1(C)CCCC=CCCC[C@](C)(NC(=O)[C@@H](N)CCC(=O)O)C(=O)N[C@@H](CC(C)C)C(=O)N[C@@H](CCCCN)C(=O)N[C@@H](CCCCN)C(=O)N1)C(=O)N[C@@H](CCCCN)C(=O)N[C@@H](CC(C)C)C(=O)NCC(=O)N[C@H](C(=O)N[C@@H](C)C(N)=O)[C@@H](C)O [SAH-POP1-8] (H-E[S5]LKK[S5]K[Nle]KLGTA-NH2; staple 2-6; N-terminus assumed) | highest | 41% | – | –
2 | – | 27 ± 2.3 µM | CCCC[C@H](NC(=O)[C@H](CCCCN)NC(=O)[C@H](Cc1ccccc1)NC(=O)[C@H](CCCCN)NC(=O)[C@H](CCCCN)NC(=O)[C@H](CC(C)C)NC(=O)[C@H](CCC(=O)O)NC(=O)[C@H](CCC(=O)O)NC(=O)CCNC(=S)Nc1ccc2c(c1)C(=O)OC21c2ccc(O)cc2Oc2cc(O)ccc21)C(=O)N[C@@H](CCCCN)C(=O)N[C@@H](CC(C)C)C(=O)NCC(=O)N[C@H](C(=O)N[C@H](C(N)=O)C(C)C)[C@@H](C)O [fPOP1-H2] ({FITC-βAla}-EELKKFK[Nle]KLGTV-NH2) | – | – | – | –
3 | – | – | SAH-POP1-4: hydrocarbon stapled peptide, amino acid sequence ES5LKKS5KMKLGTV (E[S5]LKK[S5]KMKLGTV-NH2; staple 2-6; N-terminus assumed; SMILES CSCC[C@H](NC(=O)[C@H](CCCCN)NC(=O)[C@]1(C)CCCC=CCCC[C@](C)(NC(=O)[C@@H](N)CCC(=O)O)C(=O)N[C@@H](CC(C)C)C(=O)N[C@@H](CCCCN)C(=O)N[C@@H](CCCCN)C(=O)N1)C(=O)N[C@@H](CCCCN)C(=O)N[C@@H](CC(C)C)C(=O)NCC(=O)N[C@H](C(=O)N[C@H](C(N)=O)C(C)C)[C@@H](C)O) | highest | 43% | cell permeable | completely inhibited
